Drawing on patent US10160771B2, “Hepatitis C virus inhibitors and uses thereof in preparation of drugs” (priority 2014, dated 2018), this text covers EC50 and CC50 for twelve compounds.

Broadly, the EC50 is the concentration at which the effect is half-maximal. The term CC50 denotes the concentration that lowers cell viability or growth by half. Lower therefore signals harm at low concentration.

Where only a bound is given, the exact number is not on record here.

Series [1] relates to HCV genotype 1b (HCV-1b) replicon cells. Put plainly: HCV genotype 1b replicon luciferase assay (EC50). In kind it is cell-based, hepatitis C virus genotype 1b (Con1 clone). The note with it: Hepatitis C virus, 72 h, 3 days, luciferase (Bright-Glo). In outline:
(§1)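 Compounds were dispensed as 5-fold, 6-point series (highest 100, 10 or 1 nM; 0.5% DMSO) in duplicate. Replicon cells expressing luciferase (H77-derived for 1a, Con1-derived for 1b) were added at 8000 per well and grown 3 days. Luciferase activity was then measured and EC50 fitted.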
For orientation: Replicon systems follow genome replication, usually without infectious particles.

A short description of series [2]: Cell Titer-fluor cell activity assay in HCV-1b replicon cells (CC50). In kind it is cell-based. An outline of the steps:
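Con1 genotype 1b replicon cells (E1202G, T1280I, K1846T adaptive mutations), 8000 cells/well, exposed to 6-point 5-fold dilutions from 100, 10 or 1 nM top concentration in 0.5% DMSO, duplicate wells, 3 days at 37 °C. Viability read by Cell Titer-fluor (Ex 405/Em 515 nm) after 30 min; CC50 from nonlinear fit of inhibition %.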

Series [3] relates to HCV genotype 1a (HCV-1a) replicon cells. In words: HCV genotype 1a replicon luciferase assay (EC50). In kind it is cell-based, hepatitis C virus genotype 1a (H77 clone). The note with it: Hepatitis C virus, 72 h, 3 days, luciferase (Bright-Glo). An outline of the steps:
as §1

Regarding `COC(=O)N[C@H](C(=O)N1CCC[C@H]1c1[nH]c(-c2ccc(-c3ccc(-c4cnc([C@@H]5CCCN5C(=O)[C@@H](NC(=O)OC)[C@@H](C)OC)[nH]4)cc3)cc2)c2c1COC2)C(C)C` [AG_077], the 50% effective concentration (EC50) in series [1] and in series [3] was 0.001 to 0.1 nM each time. This compound yielded a CC50 at 3 days in series [2] of over 5 nM.

In the case of `COC(=O)N[C@H](C(=O)N1CCC[C@H]1c1ncc(-c2ccc(-c3ccc(-c4cnc(C5C6CCC(C6)[C@@H]5C(=O)N(NC(=O)OC)C5CCOCC5)[nH]4)cc3)cc2)[nH]1)C(C)C` (stereo partly drawn) [AA_158], the concentration giving a half-maximal response (EC50) in series [1] lay in the range of 0.001 to 0.1 nM; in series [3] it was 1 to 10 nM. In addition, the CC50 at 3 days in series [2] was over 1 nM.

Regarding `COC(=O)N[C@H](C(=O)N1CCC[C@H]1c1ncc(-c2ccc(-c3ccc(-c4cnc(C5C6CCC(C6)[C@@H]5C(=O)NCc5ccc(OC)nc5)[nH]4)cc3)cc2)[nH]1)[C@@H](C)OC` (stereo partly drawn) [AA_223_B], the results for the EC50 in series [1] and in series [3] were 0.101 to 1 nM and 10 to 100 nM, respectively. The CC50 at 3 days in series [2] was over 1 nM.

Regarding `COC(=O)N[C@H](C(=O)N1CCC[C@H]1c1ncc(-c2ccc(-c3ccc(-c4cnc([C@H]5C6CCC(C6)[C@@H]5C(=O)NNc5nccnc5Cl)[nH]4)cc3)cc2)[nH]1)C(C)C` (stereo partly drawn) [AA_244_A], the values for the concentration giving a half-maximal response (EC50) in series [1] and in series [3] were 0.101 to 1 nM and 10 to 100 nM, respectively. In series [2], this compound yielded a CC50 at 3 days of over 1 nM.

With `COC(=O)N[C@H](C(=O)N1CCC[C@H]1c1ncc(-c2ccc(-c3ccc(-c4cnc([C@@H]5[C@H]6CC[C@H](C6)[C@H]5C(=O)NN(C(=O)OC)C(C)C)[nH]4)cc3)cc2)[nH]1)C(C)C` [AA_299_ENDOA2], the EC50 in series [1] was in the range of 0.001 to 0.1 nM; in series [3] it was 10 to 100 nM. The CC50 at 3 days in series [2] was over 1 nM.

On to `COC(=O)N[C@H](C(=O)N1CCC[C@H]1c1[nH]c(-c2ccc(-c3ccc(-c4cnc([C@@H]5CCCN5C(=O)[C@@H](NC(=O)OC)C(C)(C)C)[nH]4)cc3)cc2)c2c1CCC2)C(C)C` [AG_093], for which the figures for the half-maximal effective concentration (EC50) in series [1] and in series [3] were 0.001 to 0.1 nM and 10 to 100 nM, respectively. Besides, the CC50 at 3 days in series [2] was over 1 nM.

In the case of `COC(=O)N[C@H](C(=O)N1CCC[C@H]1c1ncc(-c2ccc(-c3ccc(-c4cnc([C@@H]5[C@H]6CC[C@H](C6)[C@H]5C(=O)N[C@H](C)c5cnccn5)[nH]4)cc3)cc2)[nH]1)C(C)C` [AA_270_ENDOA2_B], the EC50 in series [1] lay within 0.001 to 0.1 nM; in series [3], 1 to 10 nM. Further, the CC50 at 3 days in series [2] was over 1 nM.

Take `COC(=O)N[C@H](C(=O)N1CCC[C@H]1c1ncc(-c2ccc(-c3ccc(-c4cnc([C@H]5CCCC[C@@H]5C(=O)NCc5ccc(Cl)nc5)[nH]4)cc3)cc2)[nH]1)C(C)C` [AA_185]: the values for the EC50 in series [1] and in series [3] were 0.101 to 1 nM and 10 to 100 nM, respectively. The CC50 at 3 days in series [2] was over 5 nM.

Regarding `COC(=O)N[C@H](C(=O)N1CCC[C@H]1c1ccc(-c2ccc(-c3ccc(-c4cnc([C@@H]5CC6(CC6)CN5C(=O)[C@@H](NC(=O)OC)[C@@H](C)OC)[nH]4)cc3)cc2)[nH]1)[C@@H](C)OC` [AG_115], the concentration for a half-maximal effect (EC50) lay within 0.001 to 0.1 nM in series [1] and 0.101 to 1 nM in series [3]. Also, the CC50 at 3 days in series [2] is over 1 nM.

For the compound `COC(=O)N[C@H](C(=O)N1CCC[C@H]1c1ncc(-c2ccc(-c3ccc(-c4cnc([C@@H]5[C@H]6CC[C@H](C6)[C@H]5C(=O)NCc5nccs5)[nH]4)cc3)cc2)[nH]1)C(C)C` [AA_208_ENDOA2], the EC50 in series [1] was in the range of 0.001 to 0.1 nM; in series [3] it was 0.101 to 1 nM. The CC50 at 3 days in series [2] is over 1 nM.

On to `COC(=O)N[C@H](C(=O)N1CCCC1c1ncc(-c2ccc(-c3ccc(-c4[nH]c(C5CCCN5C(=O)[C@@H](NC(=O)OC)C(C)C)c5c4CCCC5)cc3)cc2)[nH]1)C(C)C` (stereo partly drawn) [AG_014], for which the figures for the EC50 in series [1] and in series [3] were 0.101 to 1 nM and 10 to 100 nM, respectively. In series [2], this compound registered a CC50 at 3 days of over 10 nM.

`COC(=O)N[C@H](C(=O)N1CCC[C@H]1c1ncc(-c2ccc(-c3ccc(-c4cnc([C@@H]5[C@H]6CC[C@H](C6)[C@H]5C(=O)N[C@H](c5cccnc5)C(C)C)[nH]4)cc3)cc2)[nH]1)C(C)C` [AA_233_ENDOA2_A]: the EC50 is 0.001 to 0.1 nM in series [1] and 0.101 to 1 nM in series [3]. Moreover, the CC50 at 3 days in series [2] was over 1 nM.
